# According to patent US10752617B2 (GALDERMA RESEARCH & DEVELOPMENT, priority 2014, dated 2020):
# How the values were obtained:
# [1] = target: T1, GAL4-RORγ (GAL4 DBD fused to the ROR gamma ligand-binding domain) (Homo sapiens, UniProt P51449); assay: GAL4-RORγ transactivation (luciferase reporter, HG5LN HeLa line); type: cell-based; conditions: HG5LN HeLa cells, 18 hours incubation, luciferase luminescence, read-out: IC50 hRORg
# T1 construct: expressed in transfected cells; host or cells: HG5LN (HeLa line with GAL4-responsive luciferase reporter)
# T1 sequence (P51449 269-508 limits assumed): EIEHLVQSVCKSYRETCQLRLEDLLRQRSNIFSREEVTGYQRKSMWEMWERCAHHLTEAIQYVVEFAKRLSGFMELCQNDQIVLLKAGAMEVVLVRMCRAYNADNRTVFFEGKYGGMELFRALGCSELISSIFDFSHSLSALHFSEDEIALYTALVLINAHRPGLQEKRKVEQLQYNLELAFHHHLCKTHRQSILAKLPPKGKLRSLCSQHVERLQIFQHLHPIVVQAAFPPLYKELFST
# Description: (§1) In the tables described above, the median inhibitory concentrations IC50 for the compounds belonging to formula (I) according to the invention have been given according to the following models:
# GAL4-RORγ Transactivation
# The RORγ transactivation model was developed from the line HG5LN, which is a HeLa line that stably expresses a luciferase reporter gene controlled by a pentamer of the GAL4 recognition domain of yeast and of a β-globin promoter. The HG5LN line was stably transfected by the DNA-binding domain (DBD) of GAL4 fused to the ROR gamma ligand-binding domain (LBD). Molecules that inhibit the ROR gamma constitutive activity reduce the luciferase expression, thus leading to a reduction in the emitted luminescence.
# The cells are seeded in 384-well plates (5000 cells in 45 μL/well of culture medium containing 10% fetal calf serum) and incubated for 4 hours at 37° C., 5% CO2. 5 μL of the test molecules (compounds described in the tables described above) are then added to each well and the plates are incubated for 18 hours at a temperature of 37° C. under 5% of CO2. 20 μL of luciferase substrate (Promega) are added to each well and the luminescence emitted is read by a microplate reader.
# The luminescence units (“RLU”) are normalized by positive controls (“POS” containing a saturated concentration of N-(2,2,2-trifluoroethyl)-N-[4-[2,2,2-trifluoro-1-hydroxy-1-(trifluoromethyl)ethyl]phenyl])benzenesulfonamide and negative controls (“NEG” containing DMSO): % inhibition=((RLU−NEG)*100)/(POS−NEG). The IC50 values are calculated from a 4-parameter logistic model using the XLFit software (IDBS).
# [2] = tested on: IL-17A secretion by CD4+ cells; assay: IL-17A secretion by activated CD4+ cells (HTRF); type: cell-based; conditions: 96 h; human CD4+ cells activated with anti-CD3 and anti-CD28, 4 days of incubation, inhibitors 1000 nM to 0.05 nM; read-out: IC50 hCD4/IL17
# Description: as §1
# This model allows measurement of the effect of inhibitors on IL-17A secretion by CD4+ cells. The cells are frozen CD4+ cells (STEMCELL, #70026), isolated from peripheral human blood and activated with anti-CD3 and anti-CD28 antibodies. The amount of IL-17a secreted is measured by the TR-FRET (kit HTRF® Human Interleukin 17A (Cisbio, #64H17PEC)) technology.
# The cells are rapidly thawed, resuspended in their culture medium (RPMI inactivated 10% FCS) supplemented with soluble anti-CD28 antibodies and seeded (100 000 cells/well) in 96-well plates precoated with anti-CD3 antibodies. The cells are then treated with the ranges of inhibitors to be tested (from 1000 nM to 0.05 nM, 0.1% DMSO). After 4 days of incubation, the HTRF signal is measured using a microplate reader (λexcitation=337 nm, λemission=620/665 nm). The ratios obtained (665/620) are normalized relative to the positive control (cells activated with anti-CD3 and anti-CD28, 0.1% DMSO). The IC50 values are calculated from a 4-parameter logistic model using the XLFit software (IDBS).
Structure (SMILES),IC50 [1],IC50 [2]
"CCc1ccc(N(C(CC)CC)S(=O)(=O)c2ccc3c(cnn3CC3CCOCC3)c2)cc1 [Compound 1, 1-(tetrahydropyran-4-ylmethyl)-1H-indazole-5-sulfonic acid (4-ethylphenyl)(1-ethylpropyl)amide]",100 to 1000 nM,100 to 1000 nM
"CCc1ccc(N(CC(C)C)S(=O)(=O)c2ccc3c(cnn3Cc3ccncc3)c2)cc1 [Compound 36, N-(4-ethylphenyl)-N-isobutyl-1-(pyridin-4-ylmethyl)-1H-indazole-5-sulfonamide]",100 to 1000 nM,< 100 nM
"CCc1ccc(N(CC(C)C)S(=O)(=O)c2ccc3c(cnn3CC3COC3)c2)cc1 [Compound 37, N-(4-ethylphenyl)-N-isobutyl-1-(oxetan-3-ylmethyl)-1H-indazole-5-sulfonamide]",100 to 1000 nM,< 100 nM
"CCc1ccc(N(CC(C)C)S(=O)(=O)c2ccc3c(cnn3CC3CCOCC3)c2)cc1 [Compound 39, N-(4-ethylphenyl)-N-isobutyl-1-((tetrahydro-2H-pyran-4-yl)methyl)-1H-indazole-5-sulfonamide]",100 to 1000 nM,100 to 1000 nM
"COC(=O)c1ccc(N(CC(C)C)S(=O)(=O)c2ccc3c(cnn3CC3CCOCC3)c2)c(C)c1 [Compound 56, methyl 4-{isobutyl[1-(tetrahydropyran-4-ylmethyl)-1H-indazole-5-sulfonyl]amino}-3-methylbenzoate]",100 to 1000 nM,< 100 nM

# Now from value to molecule:
IC50 [1],IC50 [2],Structure (SMILES)
< 100 nM,< 100 nM,"CCc1ccc(N(CC(C)C)S(=O)(=O)c2ccc3c(CC4CCOCC4)n[nH]c3c2)cc1 [Compound 63, 3-(tetrahydropyran-4-ylmethyl)-1H-indazole-6-sulfonic acid (4-ethylphenyl)isobutylamide]"
< 100 nM,< 100 nM,"CCc1ccc(N(CC(C)C)S(=O)(=O)c2ccc3c(CN4CCOCC4)n[nH]c3c2)cc1 [Compound 64, 3-morpholin-4-ylmethyl-1H-indazole-6-sulfonic acid (4-ethylphenyl)isobutylamide]"
> 1000 nM,> 1000 nM,"Cc1cc(C)c(N(CC(C)C)S(=O)(=O)c2ccc3c(cnn3CC3CCOCC3)c2)cn1 [Compound 71, 1-(tetrahydropyran-4-ylmethyl)-1H-indazole-5-sulfonic acid (4,6-dimethylpyridin-3-yl)isobutylamide]"
100 to 1000 nM,100 to 1000 nM,"CC(C)CN(c1ccc(N(C)C)cc1)S(=O)(=O)c1ccc2c(cnn2CC2CCOCC2)c1 [Compound 72, 1-(tetrahydropyran-4-ylmethyl)-1H-indazole-5-sulfonic acid (4-dimethylaminophenyl)isobutylamide]"
